Laboratory results taken from PMC9775004 (Biosensors, 2022).
Read-outs that look alike come from different tables or passages of the source.

Columns and labels:
FILLac10N0C = assay: FRET emission ratio (Venus to mTFP) response of purified FILLac10N0C; type: binding, Salmonella enterica serovar Typhimurium LT2
Experimental: The FILLac expression vectors were constructed based on the plasmid pETDuet-mTFP-Venus carrying mTFP gene and Venus gene. The original STlldR gene, its truncated variants or variants with artificial linkers were inserted between the mTFP gene and Venus gene by T5 exonuclease DNA assembly method (TEDA) to construct pETDuet-FILLac0N0C and its variants.
The purified FILLac and different compounds were diluted with 50 mM Tris-HCl buffer (pH 7.4), and then mixed at a volume ratio of 3:1 into a black 96-well microplate for a total detection volume of 100 μL. The final concentration of FILLac in the reaction mixture was 1 μM. The fluorescence intensities of FILLac at 485 nm (mTFP) and 528 nm (Venus) were detected by using an EnSight multifunctional microplate detector (PerkinElmer, USA) with excitation at 430 nm. […] The maximum ratio changes (ΔRmax) were calculated according to the following formula:(2) ΔRmax=−Rmax−Rmin/Rmin. […]

EcLldR = target: T1, EcLldR (Escherichia coli, UniProt P0ACL7); assay: Fluorescence-based thermal shift (FTS) assay with EcLldR; type: binding, E. coli MG1655; conditions: 1 mM compound, 10 μM LldR
T1 construct: His tag (inferred from pET28a and HisTrap purification); made in house; host or cells: E. coli BL21 (DE3)
Experimental: (§1) The gene STlldR encoding LldR of S. Typhimurium LT2 (STLldR) was amplified from genome of the strain, and then ligated into the plasmid pET28a to construct pET28a-STlldR. The recombinant plasmid pET28a-STlldR was transformed into E. coli BL21 (DE3) for STLldR expression. The expression strain was cultured in LB medium at 37 °C until an optical density at 600 nm (OD600) of 0.6 and induced with 1 mM isopropyl-β-D-thiogalactoside (IPTG) at 16 °C for 12 h. […] The purified STLldR was analyzed by 13% sodium dodecyl sulfate-polyacrylamide gel electrophoresis (SDS-PAGE). The protein concentration was determined using a Bradford protein assay kit (Sangon, Shanghai, China), and stored at –80 °C. […]
(§2) FTS assays were performed using a LightCycler 480 system (Roche, Indianapolis, IN, USA) with the filter set to excitation wavelength 465 nm and emission wavelength 580 nm for SYPRO orange. […] The melting temperature (Tm) of LldR was calculated from the negative first derivative value of the raw fluorescence data. Thermal shift temperature (ΔTm) was calculated by subtracting the Tm of the control from the Tm of LldR with the addition of different compounds. […]

PaLldR = assay: Fluorescence-based thermal shift (FTS) assay with PaLldR; type: binding, Pseudomonas aeruginosa PAO1; conditions: 1 mM compound, 10 μM LldR
Experimental: as §1, §2

PfLldR = assay: Fluorescence-based thermal shift (FTS) assay with PfLldR; type: binding, P. fluorescens A506; conditions: 1 mM compound, 10 μM LldR
Experimental: as §1, §2

T1 sequence (P0ACL7 whole entry): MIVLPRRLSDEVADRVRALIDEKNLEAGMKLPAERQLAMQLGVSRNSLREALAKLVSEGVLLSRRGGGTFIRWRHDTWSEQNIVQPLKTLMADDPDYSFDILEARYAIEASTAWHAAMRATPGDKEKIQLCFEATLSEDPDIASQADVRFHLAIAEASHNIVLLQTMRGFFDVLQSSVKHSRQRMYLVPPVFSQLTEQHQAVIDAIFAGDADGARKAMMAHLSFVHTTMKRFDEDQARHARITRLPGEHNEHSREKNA

With `OC[C@H]1OC(O)[C@H](O)[C@@H](O)[C@@H]1O` (stereo partly shown) [glucose] the “fluorescence emission ratio change of FILLac10N0C (specificity analysis)” value (“fluorescence emission ratio change” for short) (FILLac10N0C; 50 μM compound) was “did not change the emission ratio”.
With `[K+]` [K^+] the “fluorescence emission ratio change” value (FILLac10N0C) was “did not change the emission ratio”.
With `C[C@@H](O)C(=O)O` [D-lactate] the “change in Tm (ΔTm) of EcLldR” value (EcLldR) was “significant changes in Tm”, the “change in Tm (ΔTm) of PaLldR” value (PaLldR) was “significant changes in Tm” and the “change in Tm (ΔTm) of PfLldR” value (PfLldR) was “significant changes in Tm”.
With `O=CC(=O)O` [glyoxylate] the “fluorescence emission ratio change” value (FILLac10N0C; 50 μM compound) was “did not change the emission ratio”.
For `O=C(O)C[C@H](O)C(=O)O` [L-malate], the “fluorescence emission ratio change” value (FILLac10N0C; 50 μM compound) was “did not change the emission ratio”.
`[Ca+2]` [Ca^2+] was tested, and the “fluorescence emission ratio change” value (FILLac10N0C; 50 μM compound) was “did not change the emission ratio”.
With `[Mg+2]` [Mg^2+] the “fluorescence emission ratio change” value (FILLac10N0C; 50 μM compound) was “did not change the emission ratio”.
For `O=C(O)CC[C@@H](O)C(=O)O` [D-2-hydroxyglutarate], the “fluorescence emission ratio change” value (FILLac10N0C; 50 μM compound) was “did not change the emission ratio”.
`C[C@H](O)C(=O)O` [L-lactate] was tested, and the “change in Tm (ΔTm) of EcLldR” value (EcLldR) was “significant changes in Tm”, the “change in Tm (ΔTm) of PaLldR” value (PaLldR) was “significant changes in Tm” and the “change in Tm (ΔTm) of PfLldR” value (PfLldR) was “significant changes in Tm”.
With `O=C(O)CCC(=O)O` [succinate] the “fluorescence emission ratio change” value (FILLac10N0C) was “did not change the emission ratio”.
With `N` [NH4^+] the “fluorescence emission ratio change” value (FILLac10N0C; 50 μM compound) was “did not change the emission ratio”.
With `O=C(O)CC(O)(CC(=O)O)C(=O)O` [citrate] the “fluorescence emission ratio change” value (FILLac10N0C; 50 μM compound) was “did not change the emission ratio”.
For `O=C(O)CCC(=O)C(=O)O` [2-ketoglutarate], the “fluorescence emission ratio change” value (FILLac10N0C; 50 μM compound) was “did not change the emission ratio”.
`N[C@@H](CCC(=O)O)C(=O)O` [L-glutamate] was tested, and the “fluorescence emission ratio change” value (FILLac10N0C; 50 μM compound) was “did not change the emission ratio”.
In the case of `O=C(O)CC(=O)C(=O)O` [oxaloacetate], the “fluorescence emission ratio change” value (FILLac10N0C; 50 μM compound) is reported as “did not change the emission ratio”.
With `O=C(O)/C=C(/CC(=O)O)C(=O)O` [cis-aconitate] the “fluorescence emission ratio change” value (FILLac10N0C; 50 μM compound) was “did not change the emission ratio”.
In the case of `CC(=O)O` [acetate], the “fluorescence emission ratio change” value (FILLac10N0C; 50 μM compound) is reported as “did not change the emission ratio”.
For `O=C(O)C[C@@H](O)C(=O)O` [D-malate], the “fluorescence emission ratio change” value (FILLac10N0C; 50 μM compound) was “did not change the emission ratio”.
`O=C(O)CC[C@H](O)C(=O)O` [L-2-hydroxyglutarate] was tested, and the “fluorescence emission ratio change” value (FILLac10N0C; 50 μM compound) was “did not change the emission ratio”.
For `[Na+]` [Na^+], the “fluorescence emission ratio change” value (FILLac10N0C; 50 μM compound) was “did not change the emission ratio”.
With `CC(=O)C(=O)O` [pyruvate] the “fluorescence emission ratio change” value (FILLac10N0C; 50 μM compound) was “did not change the emission ratio” and the “effect on detection of L-lactate by FILLac10N0C” value (FILLac10N0C; 50 μM of the compound present in the L-lactate dose-response) was “not affected”.
`O=C(O)/C=C/C(=O)O` [fumarate] was tested, and the “fluorescence emission ratio change” value (FILLac10N0C; 50 μM compound) was “did not change the emission ratio”.
With `O=C(CO)[C@@H](O)[C@H](O)[C@H](O)CO` [fructose] the “fluorescence emission ratio change” value (FILLac10N0C; 50 μM compound) was “did not change the emission ratio”.
